Results from PubChem BioAssay AID1259407 (Chemical Carcinogenesis Research Information System (CCRIS), 2018).
Active and inactive are the calls of the source. No rule for the calls is given here.

Tested on: CCRIS mutagenicity, Ames/micronucleus/aberration tests
Assay: CCRIS mutagenicity studies

## OCC1CO1 (stereo not drawn)
End Point: IN VITRO CHROMOSOMAL ABERRATIONS, Test System: CHL CELLS, Metabolic Activation: NONE
  mutagenic call: active; positive (structural changes)
End Point: IN VITRO CHROMOSOMAL ABERRATIONS, Test System: CHL CELLS, Metabolic Activation: RAT, LIVER, S-9, SODIUM PHENOBARBITAL AND 5,6-BENZOFLAVONE
  mutagenic call: active; positive (structural changes)
Test System: AMES SALMONELLA TYPHIMURIUM, Strain/Indicator: TA97, Metabolic Activation: HAMSTER, LIVER, S-9, AROCLOR 1254, Method: PREINCUBATION
  mutagenic call: active; positive
Test System: AMES SALMONELLA TYPHIMURIUM, Strain/Indicator: TA97, Metabolic Activation: NONE, Method: PREINCUBATION
  mutagenic call: active; positive
Test System: AMES SALMONELLA TYPHIMURIUM, Strain/Indicator: TA97, Metabolic Activation: RAT, LIVER, S-9, AROCLOR 1254, Method: PREINCUBATION
  mutagenic call: active; positive
Test System: AMES SALMONELLA TYPHIMURIUM, Strain/Indicator: TA98, Metabolic Activation: HAMSTER, LIVER, S-9, AROCLOR 1254, Method: PREINCUBATION
  mutagenic call: active; positive
Test System: AMES SALMONELLA TYPHIMURIUM, Strain/Indicator: TA98, Metabolic Activation: NONE, Method: PREINCUBATION
  mutagenic call: active; positive
Test System: AMES SALMONELLA TYPHIMURIUM, Strain/Indicator: TA98, Metabolic Activation: RAT, LIVER, S-9, AROCLOR 1254, Method: PREINCUBATION
  mutagenic call: active; positive
Test System: AMES SALMONELLA TYPHIMURIUM, Strain/Indicator: TA100, Metabolic Activation: HAMSTER, LIVER, S-9, AROCLOR 1254, Method: PREINCUBATION
  mutagenic call: active; positive
Test System: AMES SALMONELLA TYPHIMURIUM, Strain/Indicator: TA100, Metabolic Activation: NONE, Method: PREINCUBATION
  mutagenic call: active; positive
Test System: AMES SALMONELLA TYPHIMURIUM, Strain/Indicator: TA100, Metabolic Activation: NONE, Method: STANDARD PLATE
  mutagenic call: active; positive
Test System: AMES SALMONELLA TYPHIMURIUM, Strain/Indicator: TA100, Metabolic Activation: RAT, LIVER, S-9, AROCLOR 1254, Method: PREINCUBATION
  mutagenic call: active; positive
Test System: AMES SALMONELLA TYPHIMURIUM, Strain/Indicator: TA100, Metabolic Activation: RAT, LIVER, S-9, AROCLOR 1254, Method: STANDARD PLATE
  mutagenic call: active; positive
Test System: AMES SALMONELLA TYPHIMURIUM, Strain/Indicator: TA100, Metabolic Activation: RAT, LIVER, S-9, PCB, Method: PREINCUBATION
  mutagenic call: active; positive
Test System: AMES SALMONELLA TYPHIMURIUM, Strain/Indicator: TA1535, Metabolic Activation: HAMSTER, LIVER, S-9, AROCLOR 1254, Method: PREINCUBATION
  mutagenic call: active; positive
Test System: AMES SALMONELLA TYPHIMURIUM, Strain/Indicator: TA1535, Metabolic Activation: NONE, Method: PREINCUBATION
  mutagenic call: active; positive
Test System: AMES SALMONELLA TYPHIMURIUM, Strain/Indicator: TA1535, Metabolic Activation: NONE, Method: STANDARD PLATE
  mutagenic call: active; positive
Test System: AMES SALMONELLA TYPHIMURIUM, Strain/Indicator: TA1535, Metabolic Activation: RAT, LIVER, S-9, AROCLOR 1254, Method: PREINCUBATION
  mutagenic call: active; positive
Test System: AMES SALMONELLA TYPHIMURIUM, Strain/Indicator: TA1537, Metabolic Activation: HAMSTER, LIVER, S-9, AROCLOR 1254, Method: PREINCUBATION
  mutagenic call: active; positive
Test System: AMES SALMONELLA TYPHIMURIUM, Strain/Indicator: TA1537, Metabolic Activation: NONE, Method: PREINCUBATION
  mutagenic call: active; positive
Test System: AMES SALMONELLA TYPHIMURIUM, Strain/Indicator: TA1537, Metabolic Activation: RAT, LIVER, S-9, AROCLOR 1254, Method: PREINCUBATION
  mutagenic call: active; positive
Test System: Ames Salmonella typhimurium, Strain/Indicator: TA98, Metabolic Activation: None, Method: Preincubation
  mutagenic call: active; positive
Test System: Ames Salmonella typhimurium, Strain/Indicator: TA98, Metabolic Activation: Rat, Liver, S9, Sodium phenobarbital and 5,6-benzoflavone (10%), Method: Preincubation
  mutagenic call: active; positive
Test System: Ames Salmonella typhimurium, Strain/Indicator: TA100, Metabolic Activation: None, Method: Preincubation
  mutagenic call: active; positive
Test System: Ames Salmonella typhimurium, Strain/Indicator: TA100, Metabolic Activation: Rat, Liver, S9, Sodium phenobarbital and 5,6-benzoflavone (10%), Method: Preincubation
  mutagenic call: active; positive
Test System: Ames Salmonella typhimurium, Strain/Indicator: TA1535, Metabolic Activation: None, Method: Preincubation
  mutagenic call: active; positive
Test System: Ames Salmonella typhimurium, Strain/Indicator: TA1535, Metabolic Activation: Rat, Liver, S9, Sodium phenobarbital and 5,6-benzoflavone (10%), Method: Preincubation
  mutagenic call: active; positive
Test System: Ames Salmonella typhimurium, Strain/Indicator: TA1537, Metabolic Activation: None, Method: Preincubation
  mutagenic call: active; positive
Test System: Ames Salmonella typhimurium, Strain/Indicator: TA1537, Metabolic Activation: Rat, Liver, S9, Sodium phenobarbital and 5,6-benzoflavone (10%), Method: Preincubation
  mutagenic call: inactive; negative
Test System: CHINESE HAMSTER V-79, Strain/Indicator: V-79/6-THIOGUANINE, Metabolic Activation: NONE
  mutagenic call: active; positive
Test System: E. coli, Strain/Indicator: WP2uvrA/pKM101, Metabolic Activation: None, Method: Preincubation
  mutagenic call: active; positive
Test System: E. coli, Strain/Indicator: WP2uvrA/pKM101, Metabolic Activation: Rat, Liver, S9, Sodium phenobarbital and 5,6-benzoflavone (10%), Method: Preincubation
  mutagenic call: active; positive
Test System: MOUSE LYMPHOMA, Strain/Indicator: L5178Y (TK+/TK-), Metabolic Activation: NONE, Method: SUSPENSION/PLATE
  mutagenic call: active; positive
